From EP2271341B1, “SPECIFIC INHIBITORS FOR VASCULAR ENDOTHELIAL GROWTH FACTOR RECEPTORS” (Nova Southeastern University, priority 2008, dated 2009)

Tests used:
[1] = test system: Human umbilical vein endothelial cell; test: In Vitro Angiogenesis Assay (morphogenesis / tube formation on Matrigel, ECMatrix kit); assay type: cell-based; parameters: key to Results: Individual cells, well separated (+++++); Cells begin to migrate and align themselves (++++); Cells begin to line but not sprouting (+++); Visible Sprouting (++); Closed polygons begins to form (+); conditions: for Results: score of the extent of cellular networks, HUVECs 10^4 cells/well, inhibitors 1mM and 10 mM, 8 hours incubation at 37 °C, higher score = greater inhibition of angiogenesis
Procedure: Human umbilical vein endothelial cell was purchased from Cambrex Co. (East Rutherford, New Jersey) and maintained in EGM (Endothelial Growth Medium) supplemented with 2% FBS, 0.1% EGF, 0.1% Hydrocortisone, 0.1% GA-1000 and 0.4% BBE.
The morphogenesis assay on Matrigel was performed according to the manufacturer's instructions (Chemicon International). The ECMatrix™ kit consists of laminin, collagen type IV, heparan sulfate, proteoglycans, entactin and nidogen. It also contains various growth factors (TGF-β, FGF) and proteolytic enzymes (plasminogen, tPA, MMPs) that are normally produced in EHS tumors. The incubation condition was optimized for maximal tube-formation as follows: 50µl of EC Matrix™ was suitably diluted in the ratio 9:1 with 10X diluent buffer and used for coating the 96-well plate. The coated plates were incubated at 37° C for 1 hr. to allow the Matrix solution to solidify. In the meantime the HUVECs that were cultured for 24 hours in EGM with 2% FBS was trypsinised and resuspended in the growth media and the cells were counted. After 1 hr. pre-incubation of the plate with Matrix solution, the HUVECs were plated at 10^4 cells/well in the absence or in the presence of different VEGFR inhibitors (1mM and 10 mM). After 8 hours incubation at 37 °C, the cell three-dimensional organization (cellular network structures) was examined under an inverted photomicroscope. Each treatment was performed in triplicate.
Activated endothelial cells form cellular networks (mesh like structures) resembling capillary tubes sprouting into the stromal space. The formation of these cellular networks is a dynamic process, which started migration and alignment of cells followed by the development of capillary tubes like structures, sprouting of new branches and finally the formation of the cellular networks. Although this in vitro angiogenesis kit is designed only as a qualitative assay, we have made an attempt to quantitate the degree of angiogenesis using a scoring method. The scoring was based on the extent of the cellular networks that were observed as follows: • Individual cells, well separated (+++++) • Cells begin to migrate and align themselves (++++) • Cells begin to line but not sprouting (+++) • Visible Sprouting (++) • Closed polygons begins to form (+).
According to our qualitative assessment, the higher the scoring the greater the efficiency of the compound for inhibiting endothelial cell mediated angiogenesis.

GI-101A = test: Cytotoxicity towards breast carcinoma cell line GI-101A; assay type: cell-based; conditions: GI-101A breast carcinoma cell line
VEGFR = test: Assay of VEGF Receptor Tyrosine Kinase Activity (VEGFR immunoprecipitated from cell lysate, non-radioactive PTK ELISA); assay type: biochemical; conditions: VEGFR immunoprecipitated from cell lysate with VEGFR specific antibody, read-out: IC50 for inhibiting VEGFR kinase
Excerpt: Protein Tyrosine Kinases (PTKs) perform a critical role in signal transduction pathways that control cell proliferation, differentiation, metabolism, and apoptosis. Phosphorylation of proteins by PTKs is essential for the regulation of these biological mechanisms and defects in these pathways may result in a number of human diseases, including cancer. The important aspect of these enzymes in cellular regulation is accentuated by the fact that for a large number of kinases a corresponding viral oncogene product has been identified. […] CHEMICON's non-radioactive Tyrosine Kinase Activity Assay provides a simple, convenient and specific method for quantification and comparative determination of a wide range of PTKs. […]
The non-radioactive Tyrosine Kinase Activity Assay Kit consists of a synthetic Biotinylated Peptide Substrate, a Biotinylated Phosphopeptide, purified Phosphotyrosine specific monoclonal antibody conjugated to horseradish peroxidase (HRP) and other components required to perform 96 ELISA-based assays. […] The quantity of phosphate incorporated into the tyrosine kinase substrate is determined utilizing the phosphopeptide standard curve. […] The assay reaction would be terminated by the addition of 100 µl of stop solution and finally, the absorbance was measured on a standard microplate reader at 450nm. […]

MCF-7 = test: Cytotoxicity towards breast carcinoma cell line MCF-7; assay type: cell-based; conditions: MCF-7 breast carcinoma cell line

| IC50 (VEGFR) | EC50 ([1]; Homo sapiens, Endothelial cell, estimated, read-out: EC50 value for anti-antigenic effect) | SMILES | Results [1] | cytotoxicity (GI-101A) | cytotoxicity (MCF-7) |
| --- | --- | --- | --- | --- | --- |
| – | – | CCCCCCCCCCCCCCCCOc1ccc(C(NNS(=O)(=O)c2cccc(C(=O)O)c2)N2CCCCC2)cc1 (centres unmarked) [Example 2] | ++++ | – | – |
| – | – | CCC(CNCCO)Nc1nc2c(c(=O)n(C)c(=O)n2C)n1Cc1ccccc1 (centres unmarked) [Example 7] | ++ | – | – |
| – | – | CCCCCCCCCCCCCCCCCCOc1ccc(C(=O)CC(=O)Nc2ccc(Sc3cccc(C(=O)O)c3)c(C(=O)O)c2)cc1 [Example 5] | +++ | – | – |
| 400 nM | 250 nM | COc1ccc(NCC(O)Cn2cnc3c2c(=O)n(C)c(=O)n3C)cc1 (centres unmarked) [Example 1] | +++++ | produced cytotoxicity | produced cytotoxicity |
